Laboratory results: patent US8816076B2, “Aryl urea derivatives as N-formyl peptide receptor like-1 (FPRL-1) receptor modulators” (Allergan, Inc., priority 2011, dated 2014)
Values joined by “and” are separate entries in the source; they are usually repeats but may differ in a detail not shown here. Equal values may be shown once.

Target: T1, FPRL-1 (Homo sapiens, UniProt P25090)
T1 construct: expressed in transfected cells
T1 sequence (P25090 1-351): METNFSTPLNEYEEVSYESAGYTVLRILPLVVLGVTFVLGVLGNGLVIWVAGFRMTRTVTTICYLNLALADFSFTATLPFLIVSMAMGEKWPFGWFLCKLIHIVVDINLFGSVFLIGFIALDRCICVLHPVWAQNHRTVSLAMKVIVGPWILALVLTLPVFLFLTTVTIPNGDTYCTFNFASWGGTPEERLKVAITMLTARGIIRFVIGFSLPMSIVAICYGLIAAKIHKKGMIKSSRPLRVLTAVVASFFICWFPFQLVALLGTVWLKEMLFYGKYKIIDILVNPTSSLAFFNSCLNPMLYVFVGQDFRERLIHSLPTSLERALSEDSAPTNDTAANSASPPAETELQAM
Assay: Compound-induced calcium activity on FLIPR Tetra in CHO-Ga16 cells stably expressing FPRL1
Format: cell-based
Settings: for EC50: compounds tested at 0.61 to 10,000 nM; for FPRL-1 Ga16-CHO (Rel. eff.): relative efficacy
Description: CHO-Ga16 cells stably expressing FPRL1 were cultured in (F12, 10% FBS, 1% PSA, 400 μg/ml geneticin and 50 μg/ml hygromycin) and HEK-Gqi5 cells stable expressing FPR1 were cultured in (DMEM high glucose, 10% FBS, 1% PSA, 400 μg/ml geneticin and 50 μg/ml hygromycin). In general, the day before the experiment, 18,000 cells/well were placed in a 384-well clear bottom poly-d-lysine coated plate. The following day the screening compound-induced calcium activity was assayed on the FLIPR^Tetra. The drug plates were prepared in 384-well microplates using the EP3 and the MultiPROBE robotic liquid handling systems. Compounds were tested at concentrations ranging from 0.61 to 10,000 nM. Results are expressed as EC50 (nM) and efficacy values.

Row | EC50 | FPRL-1 Ga16-CHO (Rel. eff.) | Structure (SMILES)
1 | 51 nM | (0.88) | O=C(Nc1ccc(Br)cc1F)N[C@@H](Cc1ccccc1)C(=O)O [Compound 1, (2S)-2-({[(4-Bromo-2-fluorophenyl)amino]carbonyl}amino)-3-phenylpropanoic acid]
2 | 1550 nM | (1.0) | Cc1cc(Br)ccc1NC(=O)N[C@@H](Cc1ccccc1)C(=O)O [Compound 2, (2S)-2-({[(4-Bromo-2-methylphenyl)amino]carbonyl}amino)-3-phenylpropanoic acid]
3 | 563 nM | (1.0) | O=C(Nc1c(F)cc(Br)cc1F)N[C@@H](Cc1ccccc1)C(=O)O [Compound 3, (2S)-2-({[(4-Bromo-2,6-difluorophenyl)amino]carbonyl}amino)-3-phenylpropanoic acid]
4 | 2400 nM | (0.82) | Cc1cc(Br)cc(C)c1NC(=O)N[C@@H](Cc1ccccc1)C(=O)O [Compound 4, (2S)-2-({[(4-Bromo-2,6-dimethylphenyl)amino]carbonyl}amino)-3-phenylpropanoic acid]
5 | 1150 nM | (1.0) | O=C(Nc1ccc(Cl)cc1Cl)N[C@@H](Cc1ccccc1)C(=O)O [Compound 5, (2S)-2-({[(2,4-Dichlorophenyl)amino]carbonyl}amino)-3-phenylpropanoic acid]
6 | 8 nM | (0.89) | CC[C@H](C)[C@H](NC(=O)Nc1ccc(Br)cc1F)C(=O)O [Compound 7, (2S,3S)-2-({[(4-Bromo-2-fluorophenyl)amino]carbonyl}amino)-3-methylpentanoic acid]
7 | 88 nM | (1.02) | O=C(Nc1ccc(Br)cc1F)N[C@H](C(=O)O)c1ccccc1 [Compound 8, (2S)-({[(4-Bromo-2-fluorophenyl)amino]carbonyl}amino)(phenyl)acetic acid]
8 | 5100 nM | (0.53) | O=C(Nc1ccc(Br)c2ccccc12)N[C@@H](Cc1ccccc1)C(=O)O [Compound 10, (2S)-2-({[(4-Bromo-1-naphthyl)amino]carbonyl}amino)-3-phenylpropanoic acid]
9 | 2380 nM | (0.64) | CC(C)C[C@H](NC(=O)Nc1ccc(SC(F)(F)F)cc1)C(=O)O [Compound 11, (2S)-4-Methyl-2-{[({4-[(trifluoromethyl)thio]phenyl}amino)carbonyl]amino}pentanoic acid]
10 | 29 nM | (0.94) | CC(C)C[C@H](NC(=O)Nc1ccc(C(F)(F)F)cc1)C(=O)O [Compound 12, (2S)-4-Methyl-2-[({[4-(trifluoromethyl)phenyl]amino}carbonyl)amino]pentanoic acid]
11 | 75 nM | (1.00) | CSCC[C@H](NC(=O)Nc1ccc(Br)cc1)C(=O)O [Compound 14, (2S)-2-({[(4-Bromophenyl)amino]carbonyl}amino)-4-(methylthio)butanoic acid]
12 | 77 nM | (0.87) | CSc1ccc(NC(=O)N[C@@H](Cc2ccccc2)C(=O)O)cc1 [Compound 15, (2S)-2-[({[4-(Methylthio)phenyl]amino}carbonyl)amino]-3-phenylpropanoic acid]
13 | 488 nM | (1.0) | O=C(Nc1ccc(Br)cc1)NC(Cc1ccccn1)C(=O)O (stereo not shown) [Compound 16, 2-({[(4-Bromophenyl)amino]carbonyl}amino)-3-pyridin-2-ylpropanoic acid]
14 | 713 nM | (1.0) | O=C(Nc1ccc(Br)cc1F)NC(Cc1ccccn1)C(=O)O (stereo not shown) [Compound 17, 2-({[(4-Bromo-2-fluorophenyl)amino]carbonyl}amino)-3-pyridin-2-ylpropanoic acid]
15 | 120 nM | (1.04) | O=C(Nc1ccc(Br)cc1F)NC(Cc1c[nH]c2ccccc12)C(=O)O (stereo not shown) [Compound 19, 2-({[(4-Bromo-2-fluorophenyl)amino]carbonyl}amino)-3-(1H-indol-3-yl)propanoic acid]
16 |  | (0.25) | O=C(Nc1ncc2cc(Br)ccc2n1)NC(Cc1ccccc1)C(=O)O (stereo not shown) [Compound 20, 2-({[(6-Bromoquinazolin-2-yl)amino]carbonyl}amino)-3-phenylpropanoic acid]
17 | 93 nM | (0.94) | CSCCC(NC(=O)Nc1ccc(Br)cc1)C(=O)O (stereo not shown) [Compound 21, 2-({[(4-Bromophenyl)amino]carbonyl}amino)-4-(methylthio)butanoic acid]
18 | 91 nM | (1.05) | O=C(Nc1ccc(C(F)(F)F)cc1)NC(Cc1ccccc1)C(=O)O (stereo not shown) [Compound 22, 3-Phenyl-2-({[4-(trifluoromethyl)phenyl]carbamoyl}amino)propanoic acid]
19 | 169 nM | (0.76) | CSc1ccc(NC(=O)NC(Cc2ccccc2)C(=O)O)cc1 (stereo not shown) [Compound 23, 2-[({[4-(Methylthio)phenyl]amino}carbonyl)amino]-3-phenylpropanoic acid]
20 | 16 nM | (0.95) | CC(C)CC(C)(NC(=O)Nc1ccc(Br)cc1)C(=O)O (stereo not shown) [Compound 24, 2-({[(4-Bromophenyl)amino]carbonyl}amino)-2,4-dimethylpentanoic acid]
21 | 24 nM | (1.03) | CCC(CC)(NC(=O)Nc1ccc(Br)cc1)C(=O)O [Compound 25, 2-({[(4-Bromophenyl)amino]carbonyl}amino)-2-ethylbutanoic acid]
22 | 47 nM and 29 nM |  | NC(=O)[C@H](Cc1ccccc1)NC(=O)Nc1ccc(Br)cc1 [Compound 26, (2S)-2-({[(4-Bromophenyl)amino]carbonyl}amino)-3-phenylpropanamide]
23 | 120 nM | (1.13) | CC(C)C[C@H](NC(=O)Nc1ccc(Br)cc1F)C(N)=O [Compound 27, (2S)-2-({[(4-Bromo-2-fluorophenyl)amino]carbonyl}amino)-4-methylpentanamide]
24 | 48 nM | (0.91) | CC(C)C[C@H](NC(=O)Nc1ccc(Br)cc1)C(N)=O [Compound 28, (2S)-2-({[(4-Bromophenyl)amino]carbonyl}amino)-4-methylpentanamide]
25 | 241 nM | (0.78) | CC[C@H](C)[C@H](NC(=O)Nc1ccc(Br)cc1F)C(N)=O [Compound 29, (2S,3S)-2-({[(4-Bromo-2-fluorophenyl)amino]carbonyl}amino)-3-methylpentanamide]
26 | 56 nM | (1.07) | CCC[C@H](NC(=O)Nc1ccc(Br)cc1F)C(N)=O [Compound 30, (2S)-2-({[(4-Bromo-2-fluorophenyl)amino]carbonyl}amino)pentanamide]
27 | 109 nM | (0.97) | CCC[C@H](NC(=O)Nc1ccc(Br)cc1)C(N)=O [Compound 31, (2S)-2-{[(4-Bromophenyl)carbamoyl]amino} pentanamide]
